{
  "source": "paper PMC9779571",
  "about": "“Guanidine Derivatives Containing the Chalcone Skeleton Are Potent Antiproliferative Compounds against Human Leukemia Cells” (International Journal of Molecular Sciences, 2022)",
  "assay_type_in_all_cases": "cell-based",
  "key": {"U-937 cells": {"system": "U-937 cells", "assay": "MTT cytotoxicity assay, U-937", "conditions": "Homo sapiens, U-937, 72 h, means ± SEM", "from_the_text": "(§1) U-937, HL-60, MOLT-3, NALM-6, and SK-MEL-1 cells were from DSMZ (German Collection of Microorganisms and Cell Cultures, Braunschweig, Germany). U-937/Bcl-2 cells were kindly provided by Dr. Jacqueline Bréard (INSERM U749, Faculté de Pharmacie Paris-Sud, Châtenay-Malabry, France). The U-937 is a pro-monocytic, human promyelocytic leukemia cell line that was isolated from a histiocytic lymphoma. HL-60 is a human acute myeloid leukemia cell line. MOLT-3 is a human acute lymphoblastic leukemia cell line. NALM-6 is a human B cell precursor leukemia. SK-MEL-1 is a human melanoma cell line growing singly or in clumps (occasional giant, polynucleated cell) in suspension. Cells were cultured in RPMI 1640 medium containing 10% (v/v) heat-inactivated fetal bovine serum, 100 μg/mL streptomycin, and 100 U/mL penicillin, incubated at 37 °C in a humidified atmosphere containing 5% CO2 as described. The doubling times of the cell lines were 24 h in HL-60, 30 h in U-937, U-937/Bcl-2, 40 h in MOLT-3 and NALM-6, and several days in SK-MEL-1 cells. Human peripheral blood mononuclear cells (PBMC) were isolated from heparin-anticoagulated blood of healthy volunteers by centrifugation with Ficoll-Paque Plus (GE Healthcare Bio-Sciences AB, Uppsala, Sweden). PBMC were also stimulated with phytohemagglutinin (2 µg/mL) for 48 h before the experimental treatment. The trypan blue exclusion method was used for counting the cells by a hemocytometer with 95% viability in all the experiments. Compounds were dissolved in dimethyl sulfoxide (DMSO) and kept under dark conditions at 25 °C. […] The cytotoxicity of the synthetic compounds was evaluated by colorimetric 3-(4,5-dimethyl-2-thiazolyl-)-2,5-diphenyl-2H-tetrazolium bromide (MTT) assay as previously described. Briefly, cells (5000 per well) were incubated with increasing concentrations of compounds for 72 h into a 96-well plate. Then, the supernatants were removed and 0.5 mg/mL MTT was added and incubated for 4 h at 37 °C. Sodium dodecyl sulfate (10% w/v) in 0.05 M HCl was added to solubilize the reaction products and the absorbance was measured at 570 nm with a reference wavelength of […] using an ELISA reader (Bio-Rad, Hercules, CA, USA). The IC50 values (concentrations inducing a 50% inhibition of cell viability) were determined graphically for each experiment by a nonlinear regression using the curve fitting routine implemented within the software Prism 5.0 (GraphPad, La Jolla, CA, USA)."}, "[1]": {"system": "six human cancer cell lines", "assay": "MTT cytotoxicity assay, all cell lines assayed (summary statements)", "conditions": "Homo sapiens; range over the six cell lines, 72 h", "from_the_text": "U-937, HL-60, MOLT-3, NALM-6, and SK-MEL-1 cells were from DSMZ (German Collection of Microorganisms and Cell Cultures, Braunschweig, Germany). U-937/Bcl-2 cells were kindly provided by Dr. Jacqueline Bréard (INSERM U749, Faculté de Pharmacie Paris-Sud, Châtenay-Malabry, France). The U-937 is a pro-monocytic, human promyelocytic leukemia cell line that was isolated from a histiocytic lymphoma. HL-60 is a human acute myeloid leukemia cell line. MOLT-3 is a human acute lymphoblastic leukemia cell line. NALM-6 is a human B cell precursor leukemia. SK-MEL-1 is a human melanoma cell line growing singly or in clumps (occasional giant, polynucleated cell) in suspension. Cells were cultured in RPMI 1640 medium containing 10% (v/v) heat-inactivated fetal bovine serum, 100 μg/mL streptomycin, and 100 U/mL penicillin, incubated at 37 °C in a humidified atmosphere containing 5% CO2 as described. […] The cytotoxicity of the synthetic compounds was evaluated by colorimetric 3-(4,5-dimethyl-2-thiazolyl-)-2,5-diphenyl-2H-tetrazolium bromide (MTT) assay as previously described. […] Sodium dodecyl sulfate (10% w/v) in 0.05 M HCl was added to solubilize the reaction products and the absorbance was measured at 570 nm with a reference wavelength of […] using an ELISA reader (Bio-Rad, Hercules, CA, USA). […]"}, "HL-60 cells": {"system": "HL-60 cells", "assay": "MTT cytotoxicity assay, HL-60", "conditions": "Homo sapiens, HL-60, 72 h, means ± SEM", "from_the_text": "as §1"}},
  "data": [
    {"smiles": "Cc1ccc(S(=O)(=O)NC(=Nc2ccc(/C=C/C(=O)c3c(O)cccc3OCc3ccccc3)cc2)N2CCN(C)CC2)cc1", "note": "[Compound 6f]", "values": [
      {"measurement": "IC50", "setting": "U-937 cells", "value": "1600 ± 600", "unit": "nM"},
      {"measurement": "IC50", "setting": "[1]", "value": "1500 to 4500", "unit": "nM"},
      {"measurement": "IC50", "setting": "HL-60 cells", "value": "1600 ± 1000", "unit": "nM"}
    ]}
  ]
}
